Columns and labels:
Type in all cases: cell-based, human
HaCaT cells [1] = assay: Immunohistochemical staining of HaCaT cells treated with 3,5-DCQA (Example 8); conditions: 1 μM 3,5-DCQA
Method: (§1) HaCaT cells (human keratinocytes) were cultured in Dulbecco's modified Eagle's medium (DMEM) containing 10% fetal bovine serum (FBS) and 1% antibiotic-antimycotic solution at 37° C. in a 5% CO2 incubator. The cell culture medium was replaced with fresh DMEM every 48-72 hours. HaCaT cells within 5-17 passages were plated at a density of 1×10^4 cells per well in an 8-well chamber slide, or at a density of 1×10^6 cells per well in a 6-well culture plate in DMEM containing […] and 1% antibiotic-antimycotic solution. The cells were cultured for 24-48 hours in a 5% CO2 incubator at 37° C. Then, the medium was replaced with DMEM containing 1% fetal bovine serum. Thereafter, the cells were treated for 24 hours with DNCB (5 μM, Sigma-Aldrich, Louis, Mo., USA) or SDS (30 μM, Sigma-Aldrich) along with the AG extract (50 μg) and the PPARδ antagonist GSK0660 (Sigma-Aldrich). In addition, the cells were treated with 1 μM 3,5-dicaffeoylquinic acid (3,5-DCQA). The HaCaT cells were donated by Dr. Sang-Wook Son. All the reagents for cell culture were purchased from Welgene Inc. (Daegu, Korea). The concentrations of all the reagents were final concentrations.
In order to measure the protein expression of keratin, involucrin, β-defensin and TNFα in HaCaT cells treated with 3,5-dicaffeoylquinic acid, immunohistochemical staining was performed after treating with the condition of Example 2.
The protein extracts were electrophoresed on 10% polyacrylamide gel and blotted to a nitrocellulose membrane. The nitrocellulose membrane was bound with primary and secondary antibodies sequentially, and then chemiluminescence was exposed to an X-ray film. The density for bands on the X-ray film was analyzed with the Image J program. The HaCaT cells fixed on a slide chamber were immunohistochemically stained with antibodies for keratin, involucrin, defensin and TNFα. Images were taken at 200× magnification, and the densities for the images were analyzed with the Image J program. The results were expressed as mean±SEM. The values were statistically analyzed by unpaired t-test. All the experiments were repeated three times.

HaCaT cells [2] = assay: Western blot of protein expression in HaCaT cells treated with 3,5-DCQA (Example 7); conditions: 1 μM 3,5-DCQA
Method: as §1
In order to measure the protein expression of TRPV4, PPARδ, AMPK and SPTLC2 in HaCaT cells treated with 3,5-dicaffeoylquinic acid, western blot was performed after treating with the condition of Example 2.

HaCaT cells [3] = assay: Western blot of protein expression in HaCaT cells treated with DNCB or SDS with AG extract (Example 3); conditions: GSK0660 along with the AG extract
Method: as §1
For evaluation of the protein expression levels of PPARδ, AMPK and SPTLC2 in the HaCaT cells treated with SDS or DNCB together with AG, western blot was conducted after treating with the conditions of Example 2.
The concentration of the proteins in the sample was estimated by the Bradford method. 10 μg of the extracted proteins were loaded onto 10% sodium dodecyl sulfate (SDS)-polyacrylamide gel, and protein blotting on nitrocellulose membrane was performed for 90 minutes. The membrane was blocked overnight with 5% skim milk and washed 3 times with TBS-T for 10 minutes. Primary antibodies were allowed to bind to the membrane at room temperature for 2 hours. […] Images were processed manually with Kodak GBX developer and fixer reagents (Carestream Health, Inc., Rochester, N.Y., USA) and were analyzed using the Image J program. β-Actin was used as a internal control group for normalization of the loaded proteins.

HaCaT cells [4] = assay: Western blot for TRPV4, PPARδ and AMPK in HaCaT cells treated with antagonists for TRPV4, PPARδ or AMPK (Example 6); conditions: HaCaT treated with antagonist
Method: (§2) Western blot was conducted for TRPV4, AMPK and PPARδ in HaCaT cells treated with antagonists for TRPV4, PPARδ and AMPK. The HaCaT cells fixed on a slide chamber were immunohistochemically stained with antibodies for keratin, involucrin, defensin and TNFα. Images were taken at 200× magnification, and the densities for the images were analyzed with the Image J program. The protein extracts were electrophoresed on 10% polyacrylamide gel and blotted to a nitrocellulose membrane. The nitrocellulose membrane was bound with primary and secondary antibodies sequentially, and then chemiluminescence was exposed to an X-ray film. The density for bands on the X-ray film was analyzed with the Image J program. The results were expressed as mean±SEM. The values were statistically analyzed by unpaired t-test. All the experiments were repeated three times.
To determine the priority of major regulators which are TRPV4, PPARδ and AMPK, the protein expression level of TRPV4, PPARδ and AMPK in HaCaT cells treated with antagonists for TRPV4, PPARδ or AMPK was measured by western blot.

HaCaT cells [5] = assay: Immunocytochemistry of keratin, involucrin, β-defensin 1 and TNFα in HaCaT cells treated with DNCB or SDS with AG extract (Example 4); conditions: AG extract plus GSK0660
Method: as §1
In order to evaluate the expression of β-defensin 1, a representative β-defensin, together with skin barrier constituents such as keratin and involucrin and the inflammatory cytokine TNFα, immunocytochemistry (ICC) was conducted after treating with the condition of Example 2.
Cells in a chamber slide were fixed with ice-cold methanol for 15 minutes. The fixed cells were treated with a 0.3% hydrogen peroxide (H2O2) solution containing 0.3% normal horse serum for 5 minutes to remove peroxidase activity in the cells. After washing with PBS for 5 minutes, the cells were incubated with diluted normal blocking serum for 20 minutes, followed by treatment with diluted primary antibodies for 1 hour. The primary antibodies for involucrin and TNFα were purchased from Novus (Littleton, Colo. 80120, USA). The primary antibody for β-defensin 1 was purchased from Santa Cruz Biotechnology, Inc. (Dallas, Tex., USA), and the primary antibody for pan-keratin was purchased from Abcam (Cambridge, UK). After washing with PBS, the cells were treated with secondary antibodies for 30 minutes. After washing with PBS, the cells were treated with a premixed Vectastain ABC reagent solution for 30 minutes. […]
The protein extracts were electrophoresed on 10% polyacrylamide gel and blotted to a nitrocellulose membrane. […] The density for bands on the X-ray film was analyzed with the Image J program. […] Images were taken at 200× magnification, and the densities for the images were analyzed with the Image J program. The results were expressed as mean±SEM. The values were statistically analyzed by unpaired t-test. […]

HaCaT cells [6] = assay: Immunohistochemical staining of HaCaT cells treated with antagonists for TRPV4 and AMPK (Example 5); conditions: HaCaT treated with antagonist; compared to the control group
Method: To investigate the effect of TRPV4 and AMPK on the expression of biomarkers related to skin barrier constituents, defense and inflammation, the protein expression for keratin, involucrin, β-defensin and TNFα was evaluated by immunohistochemical staining of HaCaT cells treated with antagonists for TRPV4 and AMPK.
as §2

O=C(/C=C/c1ccc(O)c(O)c1)O[C@@H]1C[C@](O)(C(=O)O)C[C@@H](OC(=O)/C=C/c2ccc(O)c(O)c2)[C@H]1O [3,5-DCQA, 3,5-dicaffeoylquinic acid]
expression of TNFα (HaCaT cells [1]): decreased
protein expression of involucrin (HaCaT cells [1]): increased
protein expression of keratin (HaCaT cells [1]): increased
protein expression of β-defensin 1 (HaCaT cells [1]): increased
protein expression of AMPK (HaCaT cells [2]): increased
protein expression of PPARδ (HaCaT cells [2]): increased
protein expression of SPTLC2 (HaCaT cells [2]): increased

COC(=O)c1sccc1S(=O)(=O)Nc1ccc(Nc2ccccc2)cc1OC [GSK0660]
AG extract-induced increase in the expression of P-AMPK (HaCaT cells [3]): reduced
AG extract-induced increase in the expression of PPARδ (HaCaT cells [3]): reduced
AG extract-induced increase in the expression of SPTLC2 (HaCaT cells [3]): reduced
protein expression level for PPARδ (HaCaT cells [4]): lowered
protein expression level for TRPV4 (HaCaT cells [4]): did not change
protein expression level for p-AMPK (HaCaT cells [4]): lowered
AG extract-increased involucrin protein expression (HaCaT cells [5]): offset
AG extract-increased keratin protein expression (HaCaT cells [5]): offset
AG extract-increased β-defensin 1 protein expression (HaCaT cells [5]): offset
effect of the AG extract on TNFα expression (HaCaT cells [5]): offset

c1cc(-c2cnn3cc(-c4ccc(OCCN5CCCCC5)cc4)cnc23)ccn1 [compound C]
protein expression of TNFα (HaCaT cells [6]): increased
protein expression of involucrin (HaCaT cells [6]): decreased significantly
protein expression of keratin (HaCaT cells [6]): decreased significantly
protein expression of β-defensin 1 (HaCaT cells [6]): decreased significantly
protein expression level for PPARδ (HaCaT cells [4]): did not affect
protein expression level for TRPV4 (HaCaT cells [4]): did not affect
protein expression level for p-AMPK (HaCaT cells [4]): decreased

From patent US20210393722A1, “COMPOSITION FOR IMPROVING SKIN BARRIER DAMAGE AND/OR ALLEVIATING SKIN INFLAMMATION, CONTAINING 3,5-DICAFFEOYLQUINIC ACID AS ACTIVE INGREDIENT” (KOREA UNIVERSITY RESEARCH AND BUSINESS FOUNDATION, priority 2018, published 2021)
